What was measured:
[1] = test system: Herpes simplex virus type 1, ATCC VR-733, Strain F(1); assay: Virucidal suspension test of solutions A-18 to D-18 against HSV-1, Vero indicator cells (Example 18); type: cell-based; conditions: for viral inhibitory effect: comparable concentrations
Protocol: (§1) A suspension of virus was exposed to the use dilutions of the products. At the end of the exposure time, an aliquot was removed, neutralized by serial dilution, and assayed for the presence of virus. The virus controls, cytotoxicity controls, and neutralization controls were assayed in parallel. Antiviral properties of the solutions were evaluated and compared at the specified concentrations and time intervals.
Dilutions: 1:5 defined as 1 ml test substance+4 parts sterile PBS=0.2 mg/ml
• 1:10 defined as 1 ml test substance+9 parts sterile PBS=0.1 mg/ml • 1:15 defined as 1 ml test substance+14 parts sterile PBS=0.07 mg/ml • 1:20 defined as 1 ml test substance+19 parts sterile PBS=0.05 mg/ml • 1:25 defined as 1 ml test substance+24 parts sterile PBS=0.04 mg/ml Virus: Herpes simplex virus type 1, ATCC VR-733, Strain F(1) Exposure Time: 30 minutes Exposure Temperature: Room temperature (22.0° C.) Organic Soil Load: 1% fetal bovine serum Test Medium: Minimum Essential Medium (MEM) supplemented with 5% (v/v) heat-inactivated fetal bovine serum (FBS), […], 100 units/ml penicillin, and 2.5 μg/ml amphotericin B. Indicator Cell Cultures: Vero Results
A similar experiment was run with 15 minutes contact time. The graphical representation can be seen in FIG. 6.

[2] = test system: Herpes simplex virus type 1, ATCC VR-733, Strain F(1); assay: Virucidal suspension test of solutions A-17 and B-17 against HSV-1, Vero indicator cells (Example 17); type: cell-based
Protocol: as §1, with “each pre-determined” for “end of the”, “time” for “time,”
Dilutions: FS (undiluted) defined as 1 ml test substance+0 ml PBS
• 1:10 defined as 1 ml test substance+9 ml PBS • 1:100 defined as 1 ml of the 1:10 dilution+9 ml PBS Virus: Herpes simplex virus type 1, ATCC VR-733, Strain F(1) Exposure Time: 15 minutes and 60 minutes Exposure Temperature: Room temperature (22.0° C.) Organic Soil Load: 1% fetal bovine serum Test Medium: Minimum Essential Medium (MEM) supplemented with 5% (v/v) heat-inactivated fetal bovine serum (FBS), 10 μg/ml gentamicin, 100 units/ml penicillin, and 2.5 μg/ml amphotericin B. Indicator Cell Cultures: Vero Results

Ebola virus (Zaire 76) = conditions: 5 μg/ml; FIG. 17
[3] = 15 minutes contact time, FIG. 6
[4] = dilution 1:5 = 0.2 mg/ml, 30 minutes exposure, 22.0° C.
[5] = dilution 1:10 = 0.1 mg/ml, 30 minutes exposure
[6] = dilution 1:15 = 0.07 mg/ml, 30 minutes exposure
[7] = dilution 1:20 = 0.05 mg/ml, 30 minutes exposure
[8] = dilution 1:25 = 0.04 mg/ml, 30 minutes exposure
[9] = FS (undiluted), 15 minutes exposure, 22.0° C., stock A-17 1 mg/mL, B-17 10 mg/mL
[10] = FS (undiluted), 60 minutes exposure
[11] = dilution 1:10, 15 minutes exposure
[12] = dilution 1:10, 60 minutes exposure
[13] = dilution 1:100, 15 minutes exposure
[14] = dilution 1:100, 60 minutes exposure

Substance	viral inhibitory effect [1, 3]	% Reduction [1, 4] [%]	Log10 Reduction [1, 4] [log10]	% Reduction [1, 5]	Log10 Reduction [1, 5]	% Reduction [1, 6]	Log10 Reduction [1, 6]	% Reduction [1, 7]	Log10 Reduction [1, 7]	% Reduction [1, 8]	Log10 Reduction [1, 8]	further results
C12-alkyl(ethylbenzyl) dimethylammonium chloride [Formulation A-18]	complete inactivation	≥99.997	≥4.5	99.4%	2.25 log10	98.2%	1.75 log10	96.8%	1.5 log10	90.0%	1 log10	% Reduction [1, 3]: 99.997%; log10 reduction [1, 3]: 6.75 log10
C14-alkyl(ethylbenzyl) dimethylammonium chloride [Formulation B-18]		94.4	1.24	43.8%	0.25 log10	No Reduction	No Reduction	No Reduction	No Reduction	No Reduction	No Reduction	
benzalkonium chloride [Formulation B-17]												% reduction in viral titer [2, 9]: ≥ 99.99%; log10 reduction in viral titer [2, 9]: ≥ 4.00 log10; % reduction in viral titer [2, 10]: ≥ 99.98%; log10 reduction in viral titer [2, 10]: ≥ 3.75 log10; % reduction in viral titer [2, 11]: ≥ 99.999%; log10 reduction in viral titer [2, 11]: ≥ 5.00 log10; % reduction in viral titer [2, 12]: ≥ 99.998%; log10 reduction in viral titer [2, 12]: ≥ 4.75 log10; % reduction in viral titer [2, 13]: 90.0%; log10 reduction in viral titer [2, 13]: 1 log10; % reduction in viral titer [2, 14]: 99.7%; log10 reduction in viral titer [2, 14]: 2.5 log10
benzalkonium chloride [Formulation C-18, reference compound]	no viral inhibitory effect	43.8	0.25	No Reduction	No Reduction	No Reduction	No Reduction	No Reduction	No Reduction	No Reduction	No Reduction	
C12-alkyl(ethylbenzyl) dimethylammonium chloride												deactivation of Ebola virus (Ebola virus (Zaire 76)): Complete deactivation
